Active and inactive are the calls of the source.

Assay [1] can be described thus: Binding affinity to amyloid beta (1 to 42) oligomers by change in fluorescence at 100 uM after 2 mins.
Assay [2] is described as follows: Binding affinity to amyloid beta (1 to 42) fibrils by change in fluorescence at 100 uM after 2 mins.
Assay [3] in a line: Binding affinity to amyloid beta (1 to 42) fibrils by fluorescence quenching after 30 mins.
The nature of assay [4]: Binding affinity to amyloid beta (1 to 42) fibrils by change in fluorescence at 100 uM after 10 mins.
Assay [5] can be described thus: Binding affinity to amyloid beta (1 to 42) oligomers by change in fluorescence at 100 uM after 10 mins.
Assay [6] is described as follows: Inhibition of amyloid beta (1 to 42) aggregation […] after 48 hrs by fluorescence imaging.
Assay [7] can be described thus: Binding affinity to amyloid beta (1 to 42) oligomers by fluorescence quenching after 30 mins.

With `O=S(=O)(O)c1cccc2c(-c3ccc(Nc4ccccc4)c4c(S(=O)(=O)O)cccc34)ccc(Nc3ccccc3)c12`, the outcome in assay [1] and in assay [2] was Active.
On to `c1ccc2[nH]ccc2c1`, for which the result in assay [3] was inactive. In addition, the outcome in assay [4], in assay [5] and in assay [7] was Active. The inhibition result in assay [6] was “inactive”.
As for `N[C@@H](Cc1c[nH]c2ccccc12)C(=O)O`, the result in assay [4] and in assay [5] was Active. Also, the inhibition entry in assay [6] was “inactive”.
Turning to `O=c1c(O)c(-c2cc(O)c(O)c(O)c2)oc2cc(O)cc(O)c12`, the outcome in assay [4] and in assay [5] was inactive.
Regarding `CN(C)c1ccc(N=Nc2ccccc2)cc1`, the outcome in assay [4] and in assay [5] was inactive.
As to `COc1ccc2[nH]cc(CCNC(C)=O)c2c1`, the outcome in assay [4] and in assay [5] was Active. Further, the inhibition result in assay [6] was “inactive”.
For the compound `O=C(O)C(=O)Cc1c[nH]c2ccccc12`, the result in assay [4] and in assay [5] was Active.
In the case of `O=C(O)c1cc(/N=N/c2ccc(-c3ccc(/N=N/c4ccc(O)c(C(=O)O)c4)cc3)cc2)ccc1O`, the outcome in assay [4] and in assay [5] was inactive.
For `COc1ccc(/C=C/C(=O)CC(=O)/C=C/c2ccc(OC)c(OC)c2)cc1OC`, the result in assay [4] and in assay [5] was inactive.
In the case of `CC(=O)c1ccccc1`, the outcome in assay [4] and in assay [5] was inactive.
As for `Cc1ccc2[nH]c(C(=O)O)cc2c1`, the outcome in assay [4] and in assay [5] was Active. Besides, the inhibition entry in assay [6] is “inactive”.
As for `COc1cc(/C=C/C(=O)NCc2cccc(CNC(=O)/C=C/c3ccc(O)c(OC)c3)c2)ccc1O`, the outcome in assay [4] and in assay [5] was inactive.
In the case of `O=c1c(O)c(-c2ccc(O)cc2)oc2cc(O)cc(O)c12`, the result in assay [4] and in assay [5] was inactive.
Consider `COc1ccc(/C=C/c2ccc(/C=C/c3ccc(OC)c(OCc4ccccc4)c3)c(Br)c2)cc1OCc1ccccc1`, for which the result in assay [4] and in assay [5] was Active.
As to `Cc1ccc2ccc3ccc(C)nc3c2n1`, the outcome in assay [4] and in assay [5] was Active.

(Values after ChEMBL document CHEMBL1156243.)
